Data as given in US7741275B2, “Agents and use thereof” (Lipopeptide AB, priority 2004, dated 2010).

Experiments:
HaCaT and HEKn cells = format: cell-based
Description: (§1) 25,000 cells/well were plated in 6-well plate culture dishes. […], cells were treated with 0, 0.23, 0.46, 0.69, 0.9, 1.15, 2.3, 4.6 and 11.5 μM LL-37. Each treatment was performed in triplicate. The peptide was diluted in medium (DMEM 5% FCS to HaCaT cells and Epilife basal Medium supplemented with 0.1% FCS to HEKn cells). The cells were treated during a total time of 24 h. After LL-37 stimulation, the topoisomerase I inhibitor camptothecin (CAM) (Sigma Chemical Co., St. Luis, Mo.) in dimethylsulfoxide was added to the cells to a final 6 μM concentration. Cells were further incubated for 24 h before analysis.
Two apoptotic parameters, the loss of the membrane integrity and DNA decrease were evaluated by flow cytometry.
Evaluation of Membrane integrity: After stimulation with LL-37, and treatment with CAM, cells were harvested by trypsinization. The cells were then washed in cold Dulbecco's phosphate-buffered saline (PBS) and counted with a haemocytometer (Hausser Scientific, Horsham, Pa.). Cell density was adjusted to 1×10^6 cells/ml in PBS. Apoptosis was detected by staining with propidium iodide and YO-PRO-1 dye (Molecular Probes, Eugene, Oreg.). Stained cells were analyzed on a FACScan (Beckton-Dickinson, San Jose, Calif.). Cells were gated for analysis on the basis of the forward (FSC) and side light scatter characteristics (SSC). Analysis of cells expressing YO-PRO and propidium iodide (PI) was done using Cell Quest software (Becton Dickinson), which provided percentages of YO-PRO and PI-positive cells. Cells that stained green with YO-PRO were considered apoptotic. Cells that stained also red, with propidium iodide, were necrotic. Live, viable cells take up little or no dye.
Analysis of DNA content by flow cytometry. The PI/RNase staining buffer (BectonDickinson) was used for this analysis. Trypsinized cells were fixed in cold 70% (v/v) ethanol, and stored until its use at 4° C. The DNA content was measured through incorporation of propidium iodide into DNA. Fluorometric analysis was performed using a FACScan flow cytometer (Becton and Dickinson, Mountain View, Calif., USA). FSC (forward light scatter) and SSC (side light scatter) of particles were simultaneously measured to determine the size and the granularity of cells. The red fluorescence of PI stained nuclei was detected in the FL-4 window (600 nm band pass filter and 35 nm bandwidth). The intensity of fluorescence was proportional to the cellular DNA content. Each histogram was divided into two parts: (1) the M1 area representing asynchronous, non-apoptotic, live cells (cells in G1,S and G2 phases with DNA content equal to 2n to 4N); and (2) the M2 area representing apoptotic cells with a smaller quantity of DNA in comparison to living cells.

Caspase-3 = Caspase-3 activity assay; format: cell-based, human
Description: as §1
Caspase-3 enzymatic activity was estimated using the fluorometric substrate VDVAD-AMC (100 μM) and DEVD-AMC (50 μM) as previously described.

IAP-2 mRNA = assay: IAP-2 expression by RT-PCR; format: cell-based, human
Description: HEKn cells were treated with 2 μM LL-37 and harvested at different time points after stimulation. RNA from these cells was reverse transcribed and the expression of IAP-2 was determined by real-time PCR. The transcription level of IAP-2 for each time point is shown normalized against 18S RNA and relative to the untreated cells (control set as 1 for each time point).
HEKn cells were treated with or without the specific COX-2 inhibitor SC-791 (25 nM) and further incubated for 6 hours with or without LL-37 (2 μM).
(§2) Total RNA was isolated from cells after different treatments according to the manufacturer's directions by using the Quiagen RNasy kit (Operon Biotechnologies, Cologne, Germany). Reverse transcription was performed with a first-strand synthesis kit (Amershan Biosciences)

ERK1/2 = assay: Assay of phosphorylated ERK1/2 in LL-37 treated HaCaT cells; format: cell-based, human; details: LL-37 10 μg/ml, Western blot
Description: HaCaT cells were seeded at 10% confluence and kept in DMEM with 0.2% FCS for 36 hours. For the next 48 hours, cells were cultured in DMEM with 1% or 5% FCS respectively, and in presence or absence of LL-37 at 10 μg/ml, with daily changes of medium. EGF at 10 ng/ml served as positive control. The expression of phosphorylated ERK 1/2 was evaluated by Western blot analysis with a mouse monoclonal antibody (Cell Signaling Technology, Beverly Mass.).

[1] = Antibacterial assay of synthetic LL-37; details: synthetic LL-37 peptide
Text: LL-37 peptide was synthesised and purified by HPLC to a purity of 98% (PolyPeptide Laboratories A/S, Hillerød, Denmark). Biological activity of the peptide was confirmed in an antibacterial assay^18.

COX-2 mRNA = assay: COX-2 expression by RT-PCR; format: cell-based, human; details: HEKn cells, 2.3 μM LL-37
Description: HEKn cells were treated with 2 μM LL-37 and harvested at 6, 12 and 24 hours after stimulation. Untreated cells were used as a control in each time point (light grey columns). RNA from these cells was reverse transcribed and the relative expression of COX-2 with respect to the control was determined by qPCR as above.
as §2

HaCaT cells [2] = assay: LL-37 peptide treatment of epithelial cells, [3H]-Thymidine incorporation; format: cell-based, human; details: 5% fetal calf serum, LL-37 10 μg/ml, vs non treated control
Description: A spontaneously immortalised human keratinocyte cell line (HaCaT)^19 was cultured in DMEM (Dulbecco's modified Eagle's medium, Gibco BRL, Life Technologies, Scotland) supplemented with 10% FCS (fetal calf serum, Hy-Clone, Boule Nordic AB Huddinge, Sweden) and antibiotics (PEST=penicillin 50 U/l and streptomycin […], Gibco BRL). Cells were harvested at 70% confluence and seeded in 96-well plates, 2000 cells in 100 μl medium (DMEM+10% FCS and PEST). After 12 hours, medium was changed to serum free medium (DMEM+PEST) and cells were synchronized in G0/G1 by serum starvation for 72 hours and then treated with 100 μl of medium (DMEM+5% FCS+PEST) containing synthetic biologically active LL-37 peptide at 10 μg per ml. Cells treated with only DMEM+5% FCS and PEST served as control. The experiments were performed in quadruplicates. Cell proliferation was evaluated by [^3H]-Thymidine incorporation. Cells were treated with 1 μCi/well of [^3H]-Thymidine (20.00 Ci/mmol, Perkin Elmer Life Sciences Inc. Boston, Mass.) during 12 hours and harvested (Harvester 96, Tomtec, Orage, Conn.) onto a glass fiber filter (Wallac Oy Turku, Finland). The incorporation of [^3H]-Thymidine was determined using a liquid scintillation counter (Microbeta Pluss, Wallac Sveriges AB). The experiment was repeated twice in 6 replicates.

hCAP18 transcription [3] = assay: Initial studies on small-molecule control of hCAP18 transcription; format: cell-based, human
Text: Since thus small molecules can control the expression of hCAP18, it is meaningful to systematically screen for inhibitory compounds. Initial studies have shown that estrogen and some of its metabolites have no effect. […] Based on these findings, antagonists to vitamin D, such as ZK159222 (Schering A G), and TEI-9647 (Tejin Institute for Medical Research, Tokyo), and antagonists to vitamin A such as AGN193109 (Allergen Pharmaceuticals), are potential agents for use in the methods of the invention.

HaCaT cells [4] = assay: Pertussis toxin assay (LL-37 induced proliferation); format: cell-based, human; details: pretreatment with pertussis toxin 20 ng/ml 24 h before LL-37 (5 or 10 μg/ml); not shown
Description: To assess the involvement of FPRL1 in mediating the stimulation of epithelial cell proliferation induced by hCAP18/LL-37, HaCaT cells were treated with the G-protein-coupled receptor inhibitor pertussis toxin. Cells were preincubated with pertussis toxin (Sigma-Aldrich, Switzerland) 24 h before the LL-37 treatment in a final toxin concentration of 20 ng/ml. Medium was changed 48 hours after cell seeding and the HaCaT cells were treated with 100 μl of medium (DMEM+5% FCS and PEST) containing synthetic biologically active LL-37 peptide at 5 or 10 μg per ml respectively. Cells treated with only DMEM+5% FCS and PEST served as control.

hCAP18 transcription [5] = details: via vitamin D receptor binding to response element in hCAP18 promoter; cited from earlier work

In the case of `CC[C@@]1(O)C(=O)OCc2c1cc1n(c2=O)Cc2cc3ccccc3nc2-1` [CAM, camptothecin], the “induction of apoptosis (membrane integrity, DNA profile)” value (HaCaT and HEKn cells; 6 μM CAM, 24 hours, HaCaT and keratinocytes) was “morphological changes characteristic of apoptosis”, the “time of peak caspase activity” value (Caspase-3; keratinocytes, CAM treatment) was 24 h and the caspase activity (Caspase-3; keratinocytes, within the first 12 hours of CAM treatment) was “significantly increased”.
For `NS(=O)(=O)c1ccc(-c2c(-c3ccccc3)noc2C(F)F)cc1` [SC-791], the “LL-37 induced increase of IAP-2 mRNA after COX-2 inhibition” value (IAP-2 mRNA; HEKn cells pretreated 12 h with 25 nM SC-791, then 2 μM LL-37) was “did not increase the IAP-2 mRNA levels”.
With “LL-37: synthetic, biologically active C-terminal 37 amino acid peptide of human cathelicidin hCAP18” the “activation of ERK1/2” value (ERK1/2) was “no significant activation”, the “amount of apoptotic cells” value (HaCaT and HEKn cells; 24 h with LL-37 alone or simultaneously with LL-37 and CAM, data not shown) was “not change in the amount of apoptotic cells” and the “inhibition of CAM induced apoptosis” value (HaCaT and HEKn cells; LL-37 0.23 μM up to 2,3 μM for 24 hours before CAM 6 μM 24 h, HEKn and HaCaT cells) was “inhibited both DNA fragmentation and loss of membrane permeability”. The cell death (HaCaT and HEKn cells; LL-37 4.6 μM and 11.5 μM, 24 hours before CAM, non-apoptotic mechanisms) was “caused cell death”, the “cytotoxicity (increased fraction of necrotic but not apoptotic cells)” value (HaCaT and HEKn cells; LL-37 4.6 and 11.5 μM, alone or simultaneous with CAM) was “cytotoxic” and the “biological activity in antibacterial assay” value [1] was “confirmed”. For the same molecule, the “COX-2 mRNA levels” value (COX-2 mRNA) was “time-dependent increase in mRNA levels”, the “time of highest COX-2 mRNA levels” value (COX-2 mRNA) was 12 h and the “effect on camptothecin-induced caspase activation” value (Caspase-3; pre-treatment with 2.3 μM LL-37) was “decreased camptothencin-induced caspase activation”. The “IAP-2 mRNA” value (IAP-2 mRNA; HEKn cells, 2.3 μM LL-37, from 6 hours to 12 hours after stimulation) was “increased IAP-2 mRNA”, the c-IAP-2 levels (IAP-2 mRNA; HEKn cells, LL-37 below 2.3 μM, data not shown) was “did not affect the c-IAP-2 levels” and the “cell proliferation ([3H]-Thymidine incorporation)” value (HaCaT cells [2]) was “significant increase in cell proliferation”.
In the case of Vitamin A, the hCAP18 transcription (hCAP18 transcription [3]; breast cancer cell line ZR-75-1) was “stimulates transcription” and the hCAP18 transcription (hCAP18 transcription [3]; skin keratinocytes) was “inhibits the transcription”.
For estrogen, the “effect on hCAP18 expression” value (hCAP18 transcription [3]; initial studies, cells not given) was “no effect”.
In the case of pertussis toxin, the “suppression of proliferation of HaCaT cells” value (HaCaT cells [4]) was “approximately 50%”.
In the case of vitamin D, the “induction of hCAP18 transcription” value (hCAP18 transcription [5]) is given as “strongest inducer of hCAP18 transcription”.
